# Patent publication US20120308570A1, “METHODS FOR TREATING DISEASES” (priority 2009, published 2012)
# Columns and labels:
# Y120A-SSB-2ΔSB = target: T1, Y120A-SSB-2ΔSB (Mus musculus, UniProt O88838, Y120A); experiment: ITC of Y120A mutant SSB-2 SPRY domain with iNOS peptide; assay type: binding; conditions: versus SSB-2ΔSB
# T1 construct: tyrosine 120 had been mutated to alanine (Y120A-SSB-2ΔSB; a.a.12-224); GST (N, cleaved yes); made in house; host or cells: E. coli (bacterially expressed)
# T1 sequence (O88838 12-224 Y120A): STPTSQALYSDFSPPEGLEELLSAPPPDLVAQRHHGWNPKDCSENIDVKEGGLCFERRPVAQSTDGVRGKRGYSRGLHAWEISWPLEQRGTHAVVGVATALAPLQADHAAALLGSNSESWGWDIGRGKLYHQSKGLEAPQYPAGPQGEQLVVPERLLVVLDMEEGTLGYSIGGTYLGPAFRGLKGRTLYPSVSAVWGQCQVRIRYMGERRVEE
# Method: Wild-type and mutant iNOS peptides (Table 2), corresponding to Lys19-Thr31 of mouse iNOS, were synthesized by GL Biochem (Shanghai) Ltd. These peptides were N-terminal acetylated and C-terminal amidated. All ITC measurements were carried out at 25° C. using a Microcal omega VP-ITC (Microcal Inc., Northampton, Mass.). SSB-2ΔSB was dialysed against buffer (100 mM TrisHCl, 150 mM NaCl, pH 8.0), and wild-type and mutant iNOS N-terminal peptides were prepared in the same buffer from 5 mM stocks. Solutions of 5 to 10 μM SSB-2ΔSB in the cell were titrated by injection of a total of 290 μL of 50-200 μM of iNOS peptides. Data analysis was performed using the evaluation software, MicroCal Origin version 5.0. All curves were fitted using the nonlinear least-squares fitter and the “One Set of Sites” model.
# Additional conserved residues flanking the DINNN (SEQ ID NO:36) sequence (Lys22, Val28 and Lys30) also contribute to the interaction, as alanine substitutions of these residues had 2- to 4-fold lower SSB-2 binding affinities than the wild-type peptide. […] Mutation of Glu21 had no effect on SSB-2:iNOS peptide binding. […] Binding of an SSB-2-SPRY domain in which tyrosine 120 had. been mutated to alanine (Y120A-SSB-2ΔSB) was assessed by ITC. The iNOS peptide bound Y120A-SSB-2ΔSB with ˜5000-fold reduced affinity, evidence that Tyr120 in SSB-2 is critical for binding to the iNOS peptide (Table 2).
# [1] = target: T2, SSB-2/elongin BC complex ubiquitination of iNOS (Mus musculus, UniProt O88838); experiment: Cell-free ubiquitination assay of iNOS; assay type: biochemical; conditions: excess free iNOS peptide; 10 and 40 min incubation
# T2 sequence (O88838 1-264): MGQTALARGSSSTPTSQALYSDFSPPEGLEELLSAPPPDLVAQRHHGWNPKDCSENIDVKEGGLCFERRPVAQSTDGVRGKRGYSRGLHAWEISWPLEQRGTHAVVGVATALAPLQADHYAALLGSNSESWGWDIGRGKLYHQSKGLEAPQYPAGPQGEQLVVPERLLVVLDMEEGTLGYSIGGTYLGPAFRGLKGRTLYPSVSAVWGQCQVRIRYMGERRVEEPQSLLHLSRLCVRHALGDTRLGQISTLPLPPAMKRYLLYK
# Method: Ubiquitination assays were performed in 20 μl in 20 mM Tris-HCl, 50 mM NaCl, 5 mM MgCl2, 2.5 mM ATP, 0.1 mM DTT. Reactions were stopped by the addition of 2×SDS PAGE loading buffer and heating at 95° C. for 5 min. Reactions contained 0.1 μM E1, 2.5 μM E2, 2.5 μM E3, 50 μM ubiquitin and 5 μM SSB-2/elonginBC and were incubated for 30 minutes or as indicated at 37° C. Cell lysate was added as substrate. Results were visualised by Western Blot using anti iNOS monoclonal antibody following SDS-PAGE.
# SOCS box proteins recruit an E3 ubiquitin ligase complex which in the presence of E1 and […] enzymes polyubiquitinates interacting proteins, targeting them for proteasomal degradation. […] LPS/IFNγ stimulated macrophage lysates were used as a source of iNOS and incubated with ubiquitin and a trimeric SSB-2/elongin BC complex, in the presence of E1 and E2 enzymes, Rbx 1 and Cullin5. The reaction mixtures were then analysed by SDS-PAGE and Western blot with anti-iNOS antibodies. Enhanced. polyubiquitination of iNOS, as evidenced by higher molecular weight smearing, was observed after 10 and 40 min incubation in the presence of the SSB2/elongin BC complex.
substance,measurement,setting,value
"Ac-KEEKDINNNVKKT-NH2 [I, Ac-KEEKDINNNVKKT-NH2]",fold reduced affinity for Y120A-SSB-2ΔSB,Y120A-SSB-2ΔSB,~5000 fold
same,inhibition of polyubiquitination of iNOS,[1],completely inhibited
